We go through four molecules from publication PMC9369325, “MATE1 Deficiency Exacerbates Dofetilide-Induced Proarrhythmia” (International Journal of Molecular Sciences, 2022).

The target of one data set is T1, human MATE1 (Homo sapiens, UniProt Q96FL8).
T1 sequence (Q96FL8 1-570): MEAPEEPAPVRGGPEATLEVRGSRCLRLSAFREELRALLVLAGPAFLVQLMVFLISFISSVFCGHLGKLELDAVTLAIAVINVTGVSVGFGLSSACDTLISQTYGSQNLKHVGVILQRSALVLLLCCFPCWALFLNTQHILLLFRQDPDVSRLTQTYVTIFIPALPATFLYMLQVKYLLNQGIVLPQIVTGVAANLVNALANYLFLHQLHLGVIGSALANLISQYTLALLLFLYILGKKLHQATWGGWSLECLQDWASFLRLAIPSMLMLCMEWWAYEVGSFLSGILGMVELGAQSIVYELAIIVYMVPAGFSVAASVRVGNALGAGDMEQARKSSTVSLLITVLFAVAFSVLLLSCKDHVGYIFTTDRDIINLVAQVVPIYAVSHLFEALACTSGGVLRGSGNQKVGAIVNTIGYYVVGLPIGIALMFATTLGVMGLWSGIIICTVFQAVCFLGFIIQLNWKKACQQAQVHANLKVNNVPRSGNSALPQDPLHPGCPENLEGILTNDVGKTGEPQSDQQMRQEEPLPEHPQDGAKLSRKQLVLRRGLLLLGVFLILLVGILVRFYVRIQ
The data set is described as follows: cell-based.

In data set [1] the test system is cardiomyocytes isolated from wild-type or MATE1-deficient mice. The data set is described as follows: Ex vivo cardiomyocyte uptake of [3H] dofetilide. Particulars: [3H] dofetilide 2 µM; cardiomyocytes from MATE1-/- vs wild-type mice. The data set is classed as cell-based, mouse. As for the experimental part: Briefly, hearts from wild-type and MATE1-deficient mice were quickly removed and perfused on a Langendorff’s apparatus at 37 °C. After a 5 min perfusion with Ca^2+-free tyrode solution containing (in mM): 140 NaCl, 5.4 KCl 0.5 MgCl2, 10 Hepes and 5.6 glucose; pH 7.3, the perfusate was then switched to tyrode solution containing Liberase Blendzymes (Roche, Applied Science, IN) for digestion of the connective tissue. After 20 min of digestion, cardiomyocytes were isolated from dissected and triturated hearts and stabilized in BSA containing tyrode solution.
Isolated cardiomyocytes were then plated in 12 well plates containing Ca^2+ and Mg^2+ free Hank’s balanced salt solution.

For data set [2] the following is noted: humans; cited from earlier work.
In a further data set the target is T2, MATE1 (SLC47A1) (Homo sapiens, UniProt Q96FL8).
T2 sequence (Q96FL8 1-570): T1 sequence (Q96FL8 1-570)
The experiment in a line: in vitro. To be noted: HEK293 cells overexpressing human MATE1.

The target in a further data set is T3, human (h) MATE1 (Homo sapiens, UniProt Q96FL8).
T3 construct: host or cells: HEK293 (Flp-In system, pcDNA5/FRT vector)
T3 sequence (Q96FL8 1-570): T1 sequence (Q96FL8 1-570)
The experiment in a line: Uptake of [14C] TEA and [14C] metformin in HEK293 cells overexpressing human MATE1 after preincubation with dofetilide. In kind it is cell-based. To be noted: dofetilide 1-50 µM, preincubation 15 min; TEA 2 µM, metformin 5 µM. The protocol: In brief, cells were seeded in 12- or 24-well plates in phenol red-free DMEM containing 10% FBS, and were incubated at 37 °C for 24 h. […] Uptake studies were performed with [^14C] […]
overexpressing mouse (m) OCT2, OCTN1, or MATE1. Relative uptake is expressed as percentage change compared with empty vector controls (n = 3). (B) Uptake of [14C] TEA (2 µM) and [14C] metformin (5 µM) in HEK293 cells […]
followed by the co-incubation with TEA and metformin for 15 min. Data represent the mean ± SEM and are expressed as a percentage over vector control. (C) Gene expression of MATE1 in the kidney isolated from untreated male and female wild-type mice (n = 4 per group). (D) Protein expression of MATE1 in the heart isolated from untreated wild-type (WT) and MATE1-/- mice (n=3). Immunohistochemical detection of MATE1 (bottom panels) in the wild-type mouse heart (E) and kidney (F). Tissue staining lacking the primary antibody was performed as a negative control for each tissue group (top panels). Representative images were taken at x40 magnification. (G) […]
(also on this page, place not known: hMATE1 (% Control) mOCT2mOCTN1mMA TE 1 No PrimaryMATE1 Relative Uptake in of) […]

Broadly, the IC50 is the concentration that inhibits the measured activity by half. A higher IC50 goes with weaker potency in that assay. On human MATE1, `CC(=O)N1CCN(c2ccc(OCC3COC(Cn4ccnc4)(c4ccc(Cl)cc4Cl)O3)cc2)CC1` (stereo not shown) [Ketoconazole, ketoconazole] yielded a concentration for half-maximal inhibition (IC50) of 170 nM.
Same read-out and setting: the value for `COc1cc2c(Nc3ccc(Br)cc3F)ncnc2cc1OCC1CCN(C)CC1` [Vandetanib, vandetanib] was 130 nM.
Consider `CCC(C)n1ncn(-c2ccc(N3CCN(c4ccc(OCC5COC(Cn6cncn6)(c6ccc(Cl)cc6Cl)O5)cc4)CC3)cc2)c1=O` (stereo not shown) [Itraconazole, itraconazole], for which the midpoint of inhibition on human MATE1, the IC50, lay at 320 nM.
For orientation: Km means the substrate concentration at which the rate is half of its maximum. On to `CN(CCOc1ccc(NS(C)(=O)=O)cc1)CCc1ccc(NS(C)(=O)=O)cc1` [dofetilide], for which the “accumulation of dofetilide in cardiomyocytes” value in data set [1] is “significantly increased in the absence of MATE1”. Further, in data set [2], the “higher dofetilide plasma concentrations in females than males” value is 14–22%. For the same molecule, at MATE1 (SLC47A1), the Km at 2 min came out at 6.72 ± 1.71 µM. In addition, the “inhibition of MATE1-dependent transport of TEA and metformin” value at human (h) MATE1 was “dose-dependently inhibit”.
